This note sets out measurements from article PMC9154810, “Selective inhibition of carbonic anhydrase IX by sulphonylated 1,2,3-triazole incorporated benzenesulphonamides capable of inducing apoptosis” (Journal of Enzyme Inhibition and Medicinal Chemistry, 2022).

The term melting point denotes the temperature of the solid-liquid transition. What is called Ki is a measure of affinity in units of concentration, obtained from inhibition or displacement. Low readings indicate a stronger hold on the target, high ones a looser hold on the target.

The target of one series is hCA I (Homo sapiens, UniProt P00915). Kind of series: stopped-flow CO2 hydrase assay, hCA I. Conditions: mean from three assays, stopped-flow technique, errors ± 5–10%.
The target of a further series is hCA IX (Homo sapiens, UniProt Q16790). Kind of series: stopped-flow CO2 hydrase assay, hCA IX. Conditions: for Selectivity index I/IX: ratio KI hCA I / KI hCA IX; for Selectivity index II/IX: ratio KI hCA II / KI hCA IX.
In another series the target is hCA II (Homo sapiens, UniProt P00918). In words: stopped-flow CO2 hydrase assay, hCA II.
Another series deals with hCA IV (Homo sapiens, UniProt P22748). In words: stopped-flow CO2 hydrase assay, hCA IV.

SMILES strings stand for the structures.

Chain of hCA I (P00915 whole entry): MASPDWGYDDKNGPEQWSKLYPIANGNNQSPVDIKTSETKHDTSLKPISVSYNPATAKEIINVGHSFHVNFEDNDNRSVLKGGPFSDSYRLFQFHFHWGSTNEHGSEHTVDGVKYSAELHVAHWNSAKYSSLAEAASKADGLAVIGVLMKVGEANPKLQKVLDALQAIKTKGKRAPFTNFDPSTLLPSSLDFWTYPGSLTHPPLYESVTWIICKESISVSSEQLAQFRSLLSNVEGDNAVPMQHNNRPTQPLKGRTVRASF
Chain of hCA IV (P22748 19-312): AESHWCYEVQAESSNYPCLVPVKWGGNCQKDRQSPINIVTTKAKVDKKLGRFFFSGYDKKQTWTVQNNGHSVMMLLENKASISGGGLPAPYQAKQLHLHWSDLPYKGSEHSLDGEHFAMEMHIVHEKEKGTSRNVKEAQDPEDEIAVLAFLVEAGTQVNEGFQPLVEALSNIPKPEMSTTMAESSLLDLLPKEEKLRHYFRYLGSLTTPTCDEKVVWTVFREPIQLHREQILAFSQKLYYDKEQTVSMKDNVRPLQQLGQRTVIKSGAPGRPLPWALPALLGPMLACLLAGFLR
Source text for hCA II: (§1) An Sx.18Mv-R Applied Photophysics (Oxford, UK) stopped-flow instrument was used to assay the catalytic activity of various CA isozymes for CO2 hydration reaction.[21]
Source text for hCA IV: as §1
Source text for hCA IX: as §1

Compound `NS(=O)(=O)c1ccc(-n2nnc(S(=O)(=O)c3ccccc3)c2-c2ccccc2)cc1` [Compound 9a, 4-(5-phenyl-4-(phenylsulphonyl)-1H-1,2,3-triazol-1-yl)benzenesulphonamide] had a melting point of 214 to 216 °C. Also, the Ki at hCA I was determined as 0.0979 µM. On hCA IX, the Ki worked out at 0.0215 µM, the “Selectivity index I/IX” value was determined as 4.55 and the “Selectivity index II/IX” value amounted to 0.45. Also, the affinity on hCA II, expressed as Ki, was 0.0096 µM. This compound also displayed a Ki at hCA IV of 0.149 µM.

In the case of `Cc1ccc(-c2c(S(=O)(=O)c3ccccc3)nnn2-c2ccc(S(N)(=O)=O)cc2)cc1` [Compound 9b, 4-(4-(phenylsulphonyl)-5-(p-tolyl)-1H-1,2,3-triazol-1-yl)benzenesulphonamide], the melting point lay within 205 to 207 °C. For the same compound, the Ki on hCA I was 0.767 µM. Further, on hCA IX, the Ki came to 0.0309 µM and the “Selectivity index II/IX” value is 0.25. Besides, the Ki at hCA II worked out at 0.0078 µM. For the same compound, the Ki at hCA IV amounted to 0.0821 µM.

In turn, `NS(=O)(=O)c1ccc(-n2nnc(S(=O)(=O)c3ccccc3)c2-c2ccc(F)cc2)cc1` [Compound 9c, 4-(5-(4-fluorophenyl)-4-(phenylsulphonyl)-1H-1,2,3-triazol-1-yl)benzenesulphonamide] yielded a melting point of 207 to 209 °C. At hCA I, this compound registered a Ki of 0.264 µM. In addition, on hCA IX, the Ki worked out at 0.066 µM, the “Selectivity index I/IX” value is reported as 4.00 and the “Selectivity index II/IX” value came to 0.10. In addition, the Ki at hCA II turned out to be 0.0066 µM. Besides, affinity on hCA IV was put at a Ki of 0.0861 µM.

For `NS(=O)(=O)c1ccc(-n2nnc(S(=O)(=O)c3ccccc3)c2-c2ccc([N+](=O)[O-])cc2)cc1` [Compound 9i, 4-(5-(4-nitrophenyl)-4-(phenylsulphonyl)-1H-1,2,3-triazol-1-yl)benzenesulphonamide], the Ki at hCA I came out at 0.285 µM; on hCA IX, 0.0324 µM; on hCA II, 0.0049 µM; at hCA IV, 0.0847 µM.

As for `NS(=O)(=O)c1ccc(-n2nnc(S(=O)(=O)c3ccccc3)c2-c2cccc([N+](=O)[O-])c2)cc1` [Compound 9j, 4-(5-(3-nitrophenyl)-4-(phenylsulphonyl)-1H-1,2,3-triazol-1-yl)benzenesulphonamide], the Ki at hCA I came to 0.0454 µM; on hCA IX it was 0.0263 µM; at hCA II, 0.0061 µM; on hCA IV it was 0.0896 µM.

On to `NS(=O)(=O)c1cccc(-n2nnc(S(=O)(=O)c3ccccc3)c2-c2ccc(F)cc2)c1` [Compound 10c, 3-(5-(4-fluorophenyl)-4-(phenylsulphonyl)-1H-1,2,3-triazol-1-yl)benzenesulphonamide], for which the Ki turned out to be 0.454 µM at hCA I, 0.0228 µM on hCA IX, 0.119 µM on hCA II and 0.0789 µM at hCA IV.

In the case of `COc1ccc(-c2c(S(=O)(=O)c3ccccc3)nnn2-c2cccc(S(N)(=O)=O)c2)cc1` [Compound 10g, 3-(5-(4-methoxyphenyl)-4-(phenylsulphonyl)-1H-1,2,3-triazol-1-yl)benzenesulphonamide], the Ki at hCA I was found to be 0.509 µM; at hCA IX, 0.0241 µM; at hCA II, 0.0443 µM; at hCA IV it was 0.084 µM.

For the compound `NS(=O)(=O)c1cccc(-n2nnc(S(=O)(=O)c3ccccc3)c2-c2ccc([N+](=O)[O-])cc2)c1` [Compound 10i, 3-(5-(4-nitrophenyl)-4-(phenylsulphonyl)-1H-1,2,3-triazol-1-yl)benzenesulphonamide], the Ki is 0.868 µM at hCA I, 0.027 µM on hCA IX, 0.0352 µM at hCA II and 0.0644 µM at hCA IV.

For the compound `NS(=O)(=O)c1cccc(-n2nnc(S(=O)(=O)c3ccccc3)c2-c2cccc([N+](=O)[O-])c2)c1` [Compound 10j, 3-(5-(3-nitrophenyl)-4-(phenylsulphonyl)-1H-1,2,3-triazol-1-yl)benzenesulphonamide], the Ki at hCA I came out at 6.9 µM; on hCA IX it was 0.0267 µM; on hCA II it was 0.884 µM; at hCA IV it was 1.68 µM.
